“And” between values parts separate entries of the source, which are not always exact repeats. Equal values may be shown once. Inconclusive results and toxic doses are left out.
System: BDF1 mice, intracerebral L1210 leukemia, survival T/C
Assay: NCI In Vivo Anticancer Drug Screen. Data for tumor model L1210 Leukemia (intracerebral) in B6D2F1 (BDF1) mice
Details: higher = longer survival
Description: The antitumor activity of compounds was measured in mice bearing transplantable tumors. Survival or tumor size were measured and the results are expressed as the measurement made in the treated group (T) divided by the measurement made in the vehicle treated control group (C). The tumor model used in this assay is L1210 Leukemia (intracerebral) in B6D2F1 (BDF1) mice

O=NN(CCCl)C(=O)NC1CC2CCC1C2 (stereo not given)
T/C (endpoint: mean survival time, dose: 14.5 mg/kg/injection, schedule: Q01DX001 (ip), vehicle: other): 124 % of control | T/C (endpoint: mean survival time, dose: 26.0 mg/kg/injection, schedule: Q01DX001 (ip), vehicle: carboxymethylcellulose (CMC)): 196 % of control | T/C (endpoint: mean survival time, dose: 29.25 mg/kg/injection, schedule: Q01DX001 (oral), vehicle: other): 162 % of control and 176 % of control and 191 % of control | T/C (endpoint: mean survival time, dose: 39.0 mg/kg/injection, schedule: Q01DX001 (ip), vehicle: other): 236 % of control | T/C (endpoint: mean survival time, dose: 41.0 mg/kg/injection, schedule: Q01DX001 (ip), vehicle: carboxymethylcellulose (CMC)): 247 % of control and 265 % of control | T/C (endpoint: mean survival time, dose: 58.5 mg/kg/injection, schedule: Q01DX001 (oral), vehicle: other): 306 % of control and 356 % of control and 442 % of control | T/C (endpoint: mean survival time, dose: 62.0 mg/kg/injection, schedule: Q01DX001 (ip), vehicle: carboxymethylcellulose (CMC)): 303 % of control and 306 % of control | T/C (endpoint: mean survival time, dose: 87.0 mg/kg/injection, schedule: Q01DX001 (ip), vehicle: other): 151 % of control | T/C (endpoint: mean survival time, dose: 93.0 mg/kg/injection, schedule: Q01DX001 (ip), vehicle: carboxymethylcellulose (CMC)): 188 % of control and 268 % of control | T/C (endpoint: mean survival time, dose: 117.0 mg/kg/injection, schedule: Q01DX001 (oral), vehicle: other): 111 % of control and 154 % of control and 294 % of control | T/C (endpoint: mean survival time, dose: 139.0 mg/kg/injection, schedule: Q01DX001 (ip), vehicle: carboxymethylcellulose (CMC)): 105 % of control and 101 % of control

CS(=O)(=O)OCC(O)C(O)COS(C)(=O)=O (stereo not given)
T/C (endpoint: mean survival time, dose: 440.0 mg/kg/injection, schedule: Q01DX001 (ip), vehicle: carboxymethylcellulose (CMC)): 92 % of control and 97 % of control | T/C (endpoint: mean survival time, dose: 670.0 mg/kg/injection, schedule: Q01DX001 (ip), vehicle: carboxymethylcellulose (CMC)): 101 % of control and 100 % of control | T/C (endpoint: mean survival time, dose: 1000.0 mg/kg/injection, schedule: Q01DX001 (ip), vehicle: carboxymethylcellulose (CMC)): 102 % of control and 100 % of control

C[n+]1c2ccccc2c(Nc2ccc(NS(=O)(=O)CCCCN=C(N)N)cc2)c2ccc(N)cc21
T/C (endpoint: mean survival time, dose: 1.5 mg/kg/injection, schedule: Q01DX009 (ip), vehicle: water): 103 % of control | T/C (endpoint: mean survival time, dose: 3.0 mg/kg/injection, schedule: Q01DX009 (ip), vehicle: water): 121 % of control | T/C (endpoint: mean survival time, dose: 6.0 mg/kg/injection, schedule: Q01DX009 (ip), vehicle: water): 117 % of control | T/C (endpoint: mean survival time, dose: 12.0 mg/kg/injection, schedule: Q01DX009 (ip), vehicle: water): 101 % of control

N=c1ccn2c(n1)OC1C(O)C(CO)OC12 (stereo not given)
T/C (endpoint: mean survival time, dose: 50.0 mg/kg/injection, schedule: Q01DX009 (oral), vehicle: saline): 220 % of control | T/C (endpoint: mean survival time, dose: 50.0 mg/kg/injection, schedule: Q08DX009 (ip), vehicle: water): 175 % of control | T/C (endpoint: mean survival time, dose: 100.0 mg/kg/injection, schedule: Q01DX009 (oral), vehicle: saline): 228 % of control | T/C (endpoint: mean survival time, dose: 100.0 mg/kg/injection, schedule: Q01DX009 (oral), vehicle: water): 186 % of control | T/C (endpoint: mean survival time, dose: 100.0 mg/kg/injection, schedule: Q08DX009 (ip), vehicle: water): 196 % of control | T/C (endpoint: mean survival time, dose: 200.0 mg/kg/injection, schedule: Q01DX009 (oral), vehicle: saline): 255 % of control | T/C (endpoint: mean survival time, dose: 200.0 mg/kg/injection, schedule: Q01DX009 (oral), vehicle: water): 201 % of control | T/C (endpoint: mean survival time, dose: 200.0 mg/kg/injection, schedule: Q08DX009 (ip), vehicle: water): 215 % of control and 258 % of control | T/C (endpoint: mean survival time, dose: 300.0 mg/kg/injection, schedule: Q08DX009 (ip), vehicle: water): 232 % of control and 217 % of control | T/C (endpoint: mean survival time, dose: 400.0 mg/kg/injection, schedule: Q01DX009 (oral), vehicle: saline): 193 % of control | T/C (endpoint: mean survival time, dose: 400.0 mg/kg/injection, schedule: Q01DX009 (oral), vehicle: water): 223 % of control | T/C (endpoint: mean survival time, dose: 400.0 mg/kg/injection, schedule: Q08DX009 (ip), vehicle: water): 285 % of control | T/C (endpoint: median survival time, dose: 65.0 mg/kg/injection, schedule: Q01DX009 (ip), vehicle: water): 167 % of control | T/C (endpoint: median survival time, dose: 100.0 mg/kg/injection, schedule: Q01DX009 (ip), vehicle: water): 196 % of control | T/C (endpoint: median survival time, dose: 108.0 mg/kg/injection, schedule: Q01DX009 (ip), vehicle: water): 176 % of control | T/C (endpoint: median survival time, dose: 200.0 mg/kg/injection, schedule: Q01DX009 (ip), vehicle: water): 223 % of control | T/C (endpoint: median survival time, dose: 400.0 mg/kg/injection, schedule: Q01DX009 (ip), vehicle: water): 354 % of control

O=NN(CCCl)C(=O)NC1[C@H](O)CCC[C@@H]1O (stereo not given in full)
T/C (endpoint: mean survival time, dose: 2.6 mg/kg/injection, schedule: Q01DX001 (ip), vehicle: saline): 123 % of control | T/C (endpoint: mean survival time, dose: 4.0 mg/kg/injection, schedule: Q01DX001 (ip), vehicle: saline): 112 % of control | T/C (endpoint: mean survival time, dose: 9.0 mg/kg/injection, schedule: Q01DX001 (ip), vehicle: saline): 156 % of control | T/C (endpoint: mean survival time, dose: 14.0 mg/kg/injection, schedule: Q01DX001 (ip), vehicle: saline): 388 % of control | T/C (endpoint: mean survival time, dose: 22.0 mg/kg/injection, schedule: Q01DX001 (ip), vehicle: saline): 324 % of control

Source: PubChem BioAssay AID252 (DTP/NCI, 2004)
